# Test results taken from the supplement of paper PMC10307832.
# What was measured:
# Assay in all cases: relative viability (nuclei count vs DMSO), 5 days (fraction); higher = more cells survive
# 201T = system: 201T
# Outline: (§1)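 Nuclei were stained with Hoechst during a one-step fixation (final 0.05% Triton X-100, 1% formaldehyde, 1 ug/ml Hoechst) carried out 5 days after dosing, then counted on 4× images. The cells, lung cancer lines in 1536-well plates, had been dosed by pin tool the day after seeding with one drug alone or a fixed anchor-drug dose plus five library-drug doses (not always all listed) in √10 steps. Relative viability is the nuclei count in treated wells divided by that in vehicle wells, and each value is the median of duplicate plates.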
# BEN = system: BEN
# Outline: as §1
# CAL-12T = system: CAL-12T
# Outline: as §1
# HCC-78 = system: HCC-78
# Outline: as §1
# HOP-62 = system: HOP-62
# Outline: as §1
# LCLC-97TM1 = system: LCLC-97TM1
# Outline: as §1
# LOU-NH91 = system: LOU-NH91
# Outline: as §1
# NCI-H1355 = system: NCI-H1355
# Outline: as §1
# NCI-H1395 = system: NCI-H1395
# Outline: as §1
# NCI-H1563 = system: NCI-H1563
# Outline: as §1
# NCI-H1651 = system: NCI-H1651
# Outline: as §1
# NCI-H1793 = system: NCI-H1793
# Outline: as §1
# NCI-H1915 = system: NCI-H1915
# Outline: as §1
# NCI-H1944 = system: NCI-H1944
# Outline: as §1
# NCI-H2126 = system: NCI-H2126
# Outline: as §1
# NCI-H2347 = system: NCI-H2347
# Outline: as §1
# NCI-H3122 = system: NCI-H3122
# Outline: as §1
# NCI-H322M = system: NCI-H322M
# Outline: as §1
# NCI-H441 = system: NCI-H441
# Outline: as §1
# NCI-H650 = system: NCI-H650
# Outline: as §1
# NCI-H838 = system: NCI-H838
# Outline: as §1
# SK-LU-1 = system: SK-LU-1
# Outline: as §1
# SW 1573 = system: SW 1573
# Outline: as §1
smiles,measurement,setting,value
Cc1cn(-c2cc(NC(=O)c3ccc(C)c(Nc4nccc(-c5cccnc5)n4)c3)cc(C(F)(F)F)c2)cn1 [Nilotinib] + COc1cc2c(Oc3ccc(NC(=O)C4(C(=O)Nc5ccc(F)cc5)CC4)cc3F)ccnc2cc1OCCCN1CCOCC1 [Foretinib] (partner 0.25 µM),relative viability,201T; first compound 0.001 µM,0.9
same,relative viability,201T; first compound 0.003162 µM,1.09
same,relative viability,201T; first compound 0.01 µM,1.32
same,relative viability,201T; first compound 0.03162 µM,1.01
same,relative viability,201T; first compound 0.1 µM,1.14
same,relative viability,BEN; first compound 0.001 µM,0.829
same,relative viability,BEN; first compound 0.003162 µM,0.674
same,relative viability,BEN; first compound 0.01 µM,0.494
same,relative viability,BEN; first compound 0.03162 µM,0.647
same,relative viability,BEN; first compound 0.1 µM,0.285
same,relative viability,CAL-12T; first compound 0.001 µM,1.1
same,relative viability,CAL-12T; first compound 0.003162 µM,1.09
same,relative viability,CAL-12T; first compound 0.01 µM,1.17
same,relative viability,CAL-12T; first compound 0.1 µM,0.87
same,relative viability,HCC-78; first compound 0.001 µM,0.636
same,relative viability,HCC-78; first compound 0.003162 µM,0.65
same,relative viability,HCC-78; first compound 0.01 µM,0.719
same,relative viability,HCC-78; first compound 0.03162 µM,0.577
same,relative viability,HCC-78; first compound 0.1 µM,0.59
same,relative viability,HOP-62; first compound 0.001 µM,0.802
same,relative viability,HOP-62; first compound 0.003162 µM,1.16
same,relative viability,HOP-62; first compound 0.01 µM,1.27
same,relative viability,HOP-62; first compound 0.03162 µM,0.831
same,relative viability,HOP-62; first compound 0.1 µM,0.771
same,relative viability,LCLC-97TM1; first compound 0.001 µM,0.902
same,relative viability,LCLC-97TM1; first compound 0.003162 µM,1.05
same,relative viability,LCLC-97TM1; first compound 0.01 µM,0.956
same,relative viability,LCLC-97TM1; first compound 0.03162 µM,0.883
same,relative viability,LCLC-97TM1; first compound 0.1 µM,0.885
same,relative viability,LOU-NH91; first compound 0.001 µM,0.995
same,relative viability,LOU-NH91; first compound 0.003162 µM,0.961
same,relative viability,LOU-NH91; first compound 0.01 µM,0.985
same,relative viability,LOU-NH91; first compound 0.03162 µM,0.935
same,relative viability,LOU-NH91; first compound 0.1 µM,0.92
same,relative viability,NCI-H1355; first compound 0.001 µM,0.907
same,relative viability,NCI-H1355; first compound 0.003162 µM,1.19
same,relative viability,NCI-H1355; first compound 0.01 µM,1.25
same,relative viability,NCI-H1355; first compound 0.03162 µM,0.893
same,relative viability,NCI-H1355; first compound 0.1 µM,0.992
same,relative viability,NCI-H1395; first compound 0.001 µM,1.07
same,relative viability,NCI-H1395; first compound 0.003162 µM,0.937
same,relative viability,NCI-H1395; first compound 0.01 µM,0.953
same,relative viability,NCI-H1395; first compound 0.03162 µM,0.853
same,relative viability,NCI-H1395; first compound 0.1 µM,1.02
same,relative viability,NCI-H1563; first compound 0.001 µM,0.933
same,relative viability,NCI-H1563; first compound 0.003162 µM,0.896
same,relative viability,NCI-H1563; first compound 0.01 µM,0.875
same,relative viability,NCI-H1563; first compound 0.03162 µM,0.852
same,relative viability,NCI-H1563; first compound 0.1 µM,0.891
same,relative viability,NCI-H1651; first compound 0.001 µM,0.82
same,relative viability,NCI-H1651; first compound 0.003162 µM,0.922
same,relative viability,NCI-H1651; first compound 0.01 µM,1.19
same,relative viability,NCI-H1651; first compound 0.03162 µM,0.761
same,relative viability,NCI-H1651; first compound 0.1 µM,0.79
same,relative viability,NCI-H1793; first compound 0.001 µM,0.768
same,relative viability,NCI-H1793; first compound 0.003162 µM,1.02
same,relative viability,NCI-H1793; first compound 0.01 µM,0.79
same,relative viability,NCI-H1793; first compound 0.03162 µM,0.542
same,relative viability,NCI-H1793; first compound 0.1 µM,0.582
same,relative viability,NCI-H1915; first compound 0.001 µM,0.966
same,relative viability,NCI-H1915; first compound 0.003162 µM,1.21
same,relative viability,NCI-H1915; first compound 0.01 µM,1.2
same,relative viability,NCI-H1915; first compound 0.03162 µM,0.983
same,relative viability,NCI-H1915; first compound 0.1 µM,0.952
same,relative viability,NCI-H1944; first compound 0.001 µM,0.907
same,relative viability,NCI-H1944; first compound 0.003162 µM,1.05
same,relative viability,NCI-H1944; first compound 0.01 µM,1.06
same,relative viability,NCI-H1944; first compound 0.03162 µM,0.739
same,relative viability,NCI-H2126; first compound 0.001 µM,1.08
same,relative viability,NCI-H2126; first compound 0.003162 µM,1.41
same,relative viability,NCI-H2126; first compound 0.01 µM,1.26
same,relative viability,NCI-H2126; first compound 0.03162 µM,1.2
same,relative viability,NCI-H2126; first compound 0.1 µM,1.08
same,relative viability,NCI-H2347; first compound 0.001 µM,1.14
same,relative viability,NCI-H2347; first compound 0.003162 µM,0.65
same,relative viability,NCI-H2347; first compound 0.01 µM,0.6
same,relative viability,NCI-H2347; first compound 0.03162 µM,0.77
same,relative viability,NCI-H2347; first compound 0.1 µM,0.501
same,relative viability,NCI-H3122; first compound 0.001 µM,1.02
same,relative viability,NCI-H3122; first compound 0.003162 µM,1.09
same,relative viability,NCI-H3122; first compound 0.01 µM,1.08
same,relative viability,NCI-H3122; first compound 0.03162 µM,0.929
same,relative viability,NCI-H3122; first compound 0.1 µM,0.68
same,relative viability,NCI-H322M; first compound 0.001 µM,1.01
same,relative viability,NCI-H322M; first compound 0.003162 µM,0.987
same,relative viability,NCI-H322M; first compound 0.01 µM,1.05
same,relative viability,NCI-H322M; first compound 0.03162 µM,0.956
same,relative viability,NCI-H322M; first compound 0.1 µM,1.07
same,relative viability,NCI-H441; first compound 0.001 µM,0.878
same,relative viability,NCI-H441; first compound 0.003162 µM,1.26
same,relative viability,NCI-H441; first compound 0.01 µM,1.32
same,relative viability,NCI-H441; first compound 0.03162 µM,0.932
same,relative viability,NCI-H441; first compound 0.1 µM,0.805
same,relative viability,NCI-H650; first compound 0.001 µM,0.982
same,relative viability,NCI-H650; first compound 0.003162 µM,0.999
same,relative viability,NCI-H650; first compound 0.03162 µM,0.986
same,relative viability,NCI-H650; first compound 0.1 µM,1
same,relative viability,NCI-H838; first compound 0.001 µM,1.03
same,relative viability,NCI-H838; first compound 0.003162 µM,1.16
same,relative viability,NCI-H838; first compound 0.01 µM,1.27
same,relative viability,NCI-H838; first compound 0.03162 µM,0.91
same,relative viability,NCI-H838; first compound 0.1 µM,0.949
same,relative viability,SK-LU-1; first compound 0.001 µM,0.745
same,relative viability,SK-LU-1; first compound 0.003162 µM,0.925
same,relative viability,SK-LU-1; first compound 0.01 µM,0.956
same,relative viability,SK-LU-1; first compound 0.03162 µM,0.691
same,relative viability,SK-LU-1; first compound 0.1 µM,0.666
same,relative viability,SW 1573; first compound 0.001 µM,0.949
same,relative viability,SW 1573; first compound 0.003162 µM,1.14
same,relative viability,SW 1573; first compound 0.01 µM,1.14
same,relative viability,SW 1573; first compound 0.03162 µM,0.753
same,relative viability,SW 1573; first compound 0.1 µM,0.808
